According to US7732200B2, “Materials and methods for nerve grafting, selection of nerve grafts, and in vitro nerve tissue culture” (University of Florida Research Foundation, Inc., priority 2001, dated 2010):

Experiments:
[1] = tested on: Schwann cell cultures; assay: Treatment of isolated Schwann cell cultures; format: cell-based
[2] = tested on: nerve segments; assay: Dissociation culture (squash preparations) of cultured nerve segments; format: cell-based, rat; conditions: nerves cultured 2 days, 2% serum, with GM6001
[3] = tested on: MMP gelatinolytic activity; assay: In situ zymography of cultured nerve explants; format: biochemical, rat; conditions: nerves cultured 2 days, 2% serum, in the presence of GM6001
Experimental: In situ zymography for nerve predegeneration experiments. Cryosections (10 μm) of unfixed normal and cultured nerves were mounted on slides and overlaid with reaction buffer (50 mM Tris-HCl, 150 mM NaCl, 5 mM CaCl2, 0.2 mM sodium azide, pH 7.6) containing 20 μg/ml of intramolecularly quenched, fluorescein-labeled gelatin substrate (MOLECULAR PROBES INC., Eugene, Oreg.) (Oh et al., 1999). In the control condition, the MMP inhibitor EDTA (30 mM) was included in the reaction buffer. After incubation for 24 h at 37° C., the sections were rinsed with PBS and fixed with 4% paraformaldehyde in phosphate buffer. The sections were rinsed with water and mounted using Citifluor. Fluorescein-gelatin peptides generated by gelatinolytic activity in the tissue sections were observed and photographed by epifluorescence microscopy.
The activity of MMPs is regulated by gene transcription, proenzyme activation and by the action of tissue inhibitors of metalloproteinases. The net gelatinolytic activity in nerve segments by in situ zymography was examined. Tissue sections were overlaid with quenched, fluorescein-gelatin, which is converted to fluorescent peptides by gelatinolytic activity within tissues. Constitutive gelatinolytic activity was detected in normal nerve mostly associated with Schwann cells aligned along the endoneurial basal lamina (as shown in FIGS. 17A and 17B). […]

With `CNC(=O)[C@H](Cc1c[nH]c2ccccc12)NC(=O)[C@@H](CC(=O)NO)CC(C)C` [GM6001] the “toxicity to isolated Schwann cell cultures” value [1] was “very low toxicity”, the “cell viability of nerve segments (cell outgrowth)” value [2] was “no loss of cell viability” and the “gelatinolytic activity in nerve explants” value [3] was “nearly undetectable”.
